Laboratory results published in patent publication US20240109917A1 (ACTELION PHARMACEUTICALS LTD, priority 2020, published 2024).
Where two headings read alike, the source gives them in different places.

Legend:
PDGFRβ = PDGFRβ (Rattus norvegicus (Rat), UniProt Q05030); experiment: PDGFRβ Cellular Assay (PDGFRb P-Y751 HTRF in A10 cells stimulated with PDGF-BB); format: cell-based
Method in brief: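 Rat A10 cells, plated overnight, were treated with compound for 3 hours, then stimulated with PDGF-BB (working stock 100 ng/mL in 10% FBS medium). After lysis, PDGFRβ P-Y751 was detected by HTRF.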

[1] = biological target: His6-TEV-PDGFRβ (557-1016) (Homo sapiens (Human), UniProt P09619); experiment: PDGFRβ HTRF Assay; format: biochemical; conditions: read-out: PDGFR HTRF IC50
Method in brief: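 Human PDGFRβ (557-1016) pre-incubated with compound for 30 min at RT in pH 7.5 HEPES/MgCl2/EGTA/Brij-35/DTT buffer. Reaction started with ATP and TK-biotin peptide, run 3 h at RT, then quenched with EDTA-containing Eu-cryptate antibody/streptavidin-XL665. HTRF 665/620 nm ratio read after 60 min; percent inhibition relative to DMSO and 10 μM imatinib controls.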

Chain of His6-TEV-PDGFRβ (557-1016) (P09619 557-1016): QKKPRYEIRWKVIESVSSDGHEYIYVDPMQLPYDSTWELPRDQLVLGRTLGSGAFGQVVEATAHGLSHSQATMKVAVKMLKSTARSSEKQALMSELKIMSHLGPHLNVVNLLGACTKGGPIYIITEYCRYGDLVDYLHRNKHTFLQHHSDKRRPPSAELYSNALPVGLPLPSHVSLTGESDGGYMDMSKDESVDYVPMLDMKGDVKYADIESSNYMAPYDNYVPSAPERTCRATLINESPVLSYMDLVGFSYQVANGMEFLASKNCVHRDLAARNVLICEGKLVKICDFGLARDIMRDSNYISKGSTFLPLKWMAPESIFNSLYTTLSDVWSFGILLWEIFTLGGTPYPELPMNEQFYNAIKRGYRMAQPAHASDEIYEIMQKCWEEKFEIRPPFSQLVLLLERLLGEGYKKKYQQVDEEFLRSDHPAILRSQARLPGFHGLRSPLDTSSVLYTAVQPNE
Chain of PDGFRβ (Q05030 32-1097): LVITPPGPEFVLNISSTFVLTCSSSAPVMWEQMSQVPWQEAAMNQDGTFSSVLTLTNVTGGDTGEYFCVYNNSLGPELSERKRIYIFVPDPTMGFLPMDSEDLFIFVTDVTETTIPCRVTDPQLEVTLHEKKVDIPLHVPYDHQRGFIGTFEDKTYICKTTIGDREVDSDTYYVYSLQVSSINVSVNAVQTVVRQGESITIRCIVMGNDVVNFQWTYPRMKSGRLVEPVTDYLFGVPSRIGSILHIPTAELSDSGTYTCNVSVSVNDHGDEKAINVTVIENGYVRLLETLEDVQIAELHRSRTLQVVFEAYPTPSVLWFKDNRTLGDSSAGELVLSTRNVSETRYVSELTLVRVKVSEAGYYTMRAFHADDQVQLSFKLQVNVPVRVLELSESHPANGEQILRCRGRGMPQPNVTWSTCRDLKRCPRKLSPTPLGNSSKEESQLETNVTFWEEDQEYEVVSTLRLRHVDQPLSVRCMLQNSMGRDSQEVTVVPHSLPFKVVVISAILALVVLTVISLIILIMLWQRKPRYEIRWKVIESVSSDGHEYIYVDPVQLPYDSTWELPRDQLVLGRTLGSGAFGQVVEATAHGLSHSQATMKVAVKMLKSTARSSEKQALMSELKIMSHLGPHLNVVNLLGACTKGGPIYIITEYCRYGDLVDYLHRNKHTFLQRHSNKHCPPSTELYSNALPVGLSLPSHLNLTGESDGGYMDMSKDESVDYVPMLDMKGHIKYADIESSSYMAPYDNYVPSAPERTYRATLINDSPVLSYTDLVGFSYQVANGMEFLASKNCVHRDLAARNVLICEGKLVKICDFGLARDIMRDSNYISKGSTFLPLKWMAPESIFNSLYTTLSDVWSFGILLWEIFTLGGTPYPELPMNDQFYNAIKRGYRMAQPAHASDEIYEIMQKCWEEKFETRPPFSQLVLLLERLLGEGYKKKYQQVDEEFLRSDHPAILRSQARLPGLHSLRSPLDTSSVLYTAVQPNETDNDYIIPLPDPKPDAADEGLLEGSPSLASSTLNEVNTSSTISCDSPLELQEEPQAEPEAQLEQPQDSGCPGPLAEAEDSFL

With Cc1ncc(NC(=O)CN2CCCC23CCC3)cc1NC(=O)c1cnn2cc(-c3cnn(CCO)c3)sc12 [Example 29, N-(5-(2-(5-azaspiro[3.4]octan-5-yl)acetamido)-2-methylpyridin-3-yl)-2-(1-(2-hydroxyethyl)-1H-pyrazol-4-yl)pyrazolo[5,1-b]thiazole-7-carboxamide] the IC50 (PDGFRβ; read-out: PDGFR Cellular IC50) was 5 nM and the IC50 [1] was 0.4 nM.
With Cc1ncc(NC(=O)CN2CC(C)C2)cc1NC(=O)c1cnn2cc(-c3cnn4c3OCCC4)sc12 [Example 407, 2-(6,7-dihydro-5H-pyrazolo[5,1-b][1,3]oxazin-3-yl)-N-(2-methyl-5-(2-(3-methylazetidin-1-yl)acetamido)pyridin-3-yl)pyrazolo[5,1-b]thiazole-7-carboxamide] the IC50 (PDGFRβ; read-out: PDGFR Cellular IC50) was 11.9 nM and the IC50 [1] was 0.3 nM.
Compound COCCn1cc(-c2cn3ncc(C(=O)Nc4cc(NC(=O)CN5CCCCCC5)cnc4C)c3s2)cn1 [Example 339, N-(5-(2-(azepan-1-yl)acetamido)-2-methylpyridin-3-yl)-2-(1-(2-methoxyethyl)-1H-pyrazol-4-yl)pyrazolo[5,1-b]thiazole-7-carboxamide] has an IC50 (PDGFRβ; read-out: PDGFR Cellular IC50) of 2.6 nM and an IC50 [1] of 0.4 nM.
For CCc1ncccc1-c1cn2ncc(C(=O)Nc3cc(NC(=O)CN4CC(C)(C)C4)cnc3C)c2s1 [Example 391, N-(5-(2-(3,3-dimethylazetidin-1-yl)acetamido)-2-methylpyridin-3-yl)-2-(2-ethylpyridin-3-yl)pyrazolo[5,1-b]thiazole-7-carboxamide], the IC50 (PDGFRβ; read-out: PDGFR Cellular IC50) was 10.4 nM and the IC50 [1] was 0.9 nM.
With Cc1ncc(NC(=O)CN2CC(C)(C)C2)cc1NC(=O)c1cnn2cc(-c3cccnc3C)sc12 [Example 390, N-(5-(2-(3,3-dimethylazetidin-1-yl)acetamido)-2-methylpyridin-3-yl)-2-(2-methylpyridin-3-yl)pyrazolo[5,1-b]thiazole-7-carboxamide] the IC50 (PDGFRβ; read-out: PDGFR Cellular IC50) was 5.5 nM and the IC50 [1] was 0.6 nM.
Cc1ncc(NC(=O)CN2CC3(CCOCC3)C2)cc1NC(=O)c1cnn2cc(-c3cnn4c3OCCC4)sc12 [Example 406, N-(5-(2-(7-oxa-2-azaspiro[3.5]nonan-2-yl)acetamido)-2-methylpyridin-3-yl)-2-(6,7-dihydro-5H-pyrazolo[5,1-b][1,3]oxazin-3-yl)pyrazolo[5,1-b]thiazole-7-carboxamide] was tested, and the IC50 (PDGFRβ; read-out: PDGFR Cellular IC50) was 18.9 nM and the IC50 [1] was 0.4 nM.
For COc1ncccc1-c1cn2ncc(C(=O)Nc3cc(NC(=O)CN4CC(C)(C)C4)cnc3C)c2s1 [Example 369, N-(5-(2-(3,3-dimethylazetidin-1-yl)acetamido)-2-methylpyridin-3-yl)-2-(2-methoxypyridin-3-yl)pyrazolo[5,1-b]thiazole-7-carboxamide], the IC50 (PDGFRβ; read-out: PDGFR Cellular IC50) was 1.6 nM and the IC50 [1] was 0.2 nM.
Cc1ncc(NC(=O)CN2C[C@H](C)O[C@@H](C)C2)cc1NC(=O)c1cnn2cc(-c3cc[nH]c3)sc12 [Example 365, N-(5-(2-(2,6-trans-dimethylmorpholino)acetamido)-2-methylpyridin-3-yl)-2-(1H-pyrrol-3-yl)pyrazolo[5,1-b]thiazole-7-carboxamide] showed an IC50 (PDGFRβ; read-out: PDGFR Cellular IC50) of 4.8 nM and an IC50 [1] of 0.3 nM.
Work on Cc1ncc(NC(=O)C2CN(C(C)C)C2)cc1NC(=O)c1cnn2cc(-c3cnn4c3OCCC4)sc12 [Example 348, 2-(6,7-dihydro-5H-pyrazolo[5,1-b][1,3]oxazin-3-yl)-N-(5-(1-isopropylazetidine-3-carboxamido)-2-methylpyridin-3-yl)pyrazolo[5,1-b]thiazole-7-carboxamide] yielded an IC50 (PDGFRβ; read-out: PDGFR Cellular IC50) of 195 nM and an IC50 [1] of 0.4 nM.
Cc1ncc(NC(=O)CN2C[C@H](C)O[C@@H](C)C2)cc1NC(=O)c1cnn2cc(-c3cnn(C4CC4)c3)sc12 (relative stereo) [Example 382, 2-(1-cyclopropyl-1H-pyrazol-4-yl)-N-(5-(2-(trans-2,6-dimethylmorpholino)acetamido)-2-methylpyridin-3-yl)pyrazolo[5,1-b]thiazole-7-carboxamide] showed an IC50 (PDGFRβ; read-out: PDGFR Cellular IC50) of 7.6 nM and an IC50 [1] of 0.6 nM.
COCCn1cc(-c2cn3ncc(C(=O)Nc4cc(NC(=O)CN5CCCC5)cnc4C)c3s2)cn1 [Example 337, 2-(1-(2-methoxyethyl)-1H-pyrazol-4-yl)-N-(2-methyl-5-(2-(pyrrolidin-1-yl)acetamido)pyridin-3-yl)pyrazolo[5,1-b]thiazole-7-carboxamide] was tested, and the IC50 (PDGFRβ; read-out: PDGFR Cellular IC50) was 24.9 nM and the IC50 [1] was 1.8 nM.
For Cc1ncc(NC(=O)[C@H]2CCCN2C(C)C)cc1NC(=O)c1cnn2cc(-c3cnn4c3OCCC4)sc12 [Example 347, (R)-2-(6,7-dihydro-5H-pyrazolo[5,1-b][1,3]oxazin-3-yl)-N-(5-(1-isopropylpyrrolidine-2-carboxamido)-2-methylpyridin-3-yl)pyrazolo[5,1-b]thiazole-7-carboxamide], the IC50 (PDGFRβ; read-out: PDGFR Cellular IC50) was 6 nM and the IC50 [1] was 0.5 nM.
Compound COc1cccc(-c2cn3ncc(C(=O)Nc4cc(NC(=O)CN5C[C@H](C)O[C@@H](C)C5)cnc4C)c3s2)n1 (relative stereo) [Example 386, N-(5-(2-(trans-2,6-dimethylmorpholino)acetamido)-2-methylpyridin-3-yl)-2-(6-methoxypyridin-2-yl)pyrazolo[5,1-b]thiazole-7-carboxamide] has an IC50 (PDGFRβ; read-out: PDGFR Cellular IC50) of 3.8 nM and an IC50 [1] of 0.4 nM.
Work on Cc1ncc(NC(=O)CN2CCC(C)(C)C2)cc1NC(=O)c1cnn2cc(-c3cnn(CCO)c3)sc12 [Example 28, N-(5-(2-(3,3-dimethylpyrrolidin-1-yl)acetamido)-2-methylpyridin-3-yl)-2-(1-(2-hydroxyethyl)-1H-pyrazol-4-yl)pyrazolo[5,1-b]thiazole-7-carboxamide] yielded an IC50 (PDGFRβ; read-out: PDGFR Cellular IC50) of 13.6 nM and an IC50 [1] of 0.6 nM.
With Cc1ncc(C(=O)NCCN2CCCC2(C)C)cc1NC(=O)c1cnn2cc(-c3cnn(Cc4cc(O)no4)c3)sc12 [Example 363, N-(5-((2-(2,2-dimethylpyrrolidin-1-yl)ethyl)carbamoyl)-2-methylpyridin-3-yl)-2-(1-((3-hydroxyisoxazol-5-yl)methyl)-1H-pyrazol-4-yl)pyrazolo[5,1-b]thiazole-7-carboxamide] the IC50 (PDGFRβ; read-out: PDGFR Cellular IC50) was > 2000 nM and the IC50 [1] was 1.3 nM.
Cc1ncc(NC(=O)CN2C[C@@H](CO)O[C@@H](C)C2)cc1NC(=O)c1cnn2cc(-c3cnn(C)c3)sc12 (relative stereo) [Example 378, N-(5-(2-(cis-2-(hydroxymethyl)-6-methylmorpholino)acetamido)-2-methylpyridin-3-yl)-2-(1-methyl-1H-pyrazol-4-yl)pyrazolo[5,1-b]thiazole-7-carboxamide] was tested, and the IC50 (PDGFRβ; read-out: PDGFR Cellular IC50) was 304 nM and the IC50 [1] was 0.8 nM.
Compound Cc1ncc(NC(=O)CN2CCCC[C@H]2C)cc1NC(=O)c1cnn2cc(-c3cnn(CCO)c3)sc12 [Example 33, (R)-2-(1-(2-hydroxyethyl)-1H-pyrazol-4-yl)-N-(2-methyl-5-(2-(2-methyl-piperidin-1-yl)acetamido)pyridin-3-yl)pyrazolo[5,1-b]thiazole-7-carboxamide] has an IC50 (PDGFRβ; PDGFR Cellular IC50) of 10.1 nM and an IC50 [1] of 0.7 nM.
COc1ncccc1-c1cn2ncc(C(=O)Nc3cc(NC(=O)CN4C[C@H](CO)OC(C)(C)C4)cnc3C)c2s1 [Example 379, (R)—N-(5-(2-(6-(hydroxymethyl)-2,2-dimethylmorpholino)acetamido)-2-methylpyridin-3-yl)-2-(2-methoxypyridin-3-yl)pyrazolo[5,1-b]thiazole-7-carboxamide] showed an IC50 (PDGFRβ; read-out: PDGFR Cellular IC50) of 9.2 nM and an IC50 [1] of 0.4 nM.
Work on COC/C=C/c1cn2ncc(C(=O)Nc3cc(NC(=O)CN4C[C@H](C)O[C@@H](C)C4)cnc3C)c2s1 (relative stereo) [Example 367, N-(5-(2-(trans-2,6-dimethylmorpholino)acetamido)-2-methylpyridin-3-yl)-2-((E)-3-methoxyprop-1-en-1-yl)pyrazolo[5,1-b]thiazole-7-carboxamide] yielded an IC50 (PDGFRβ; PDGFR Cellular IC50) of 18.6 nM and an IC50 [1] of 1.8 nM.
COc1ncccc1-c1cn2ncc(C(=O)Nc3cc(C(=O)NCCN4CC(C)(C)C4)cnc3C)c2s1 [Example 387, N-(5-((2-(3,3-dimethylazetidin-1-yl)ethyl)carbamoyl)-2-methylpyridin-3-yl)-2-(2-methoxypyridin-3-yl)pyrazolo[5,1-b]thiazole-7-carboxamide] gave an IC50 (PDGFRβ; read-out: PDGFR Cellular IC50) of 6.9 nM and an IC50 [1] of 0.2 nM.
Compound Cc1ncc(NC(=O)C2CN(C(C)C)C2)cc1NC(=O)c1cnn2cc(-c3cn(C)nc3C)sc12 [Example 354, 2-(1,3-dimethyl-1H-pyrazol-4-yl)-N-(5-(1-isopropylazetidine-3-carboxamido)-2-methylpyridin-3-yl)pyrazolo[5,1-b]thiazole-7-carboxamide] has an IC50 (PDGFRβ; read-out: PDGFR Cellular IC50) of 78.8 nM and an IC50 [1] of 0.2 nM.
In the case of COc1ncccc1-c1cn2ncc(C(=O)Nc3cc(NC(=O)CN4CC5(CCOCC5)C4)cnc3C)c2s1 [Example 403, N-(5-(2-(7-oxa-2-azaspiro[3.5]nonan-2-yl)acetamido)-2-methylpyridin-3-yl)-2-(2-methoxypyridin-3-yl)pyrazolo[5,1-b]thiazole-7-carboxamide carboxamide], the IC50 (PDGFRβ; read-out: PDGFR Cellular IC50) is reported as 3.3 nM and the IC50 [1] is reported as 0.2 nM.
For Cc1ncc(NC(=O)CN2CCC[C@@H]2C)cc1NC(=O)c1cnn2cc(-c3ccnc(N4CCOCC4)c3)sc12 [Example 352, (S)—N-(2-methyl-5-(2-(2-methylpyrrolidin-1-yl)acetamido)pyridin-3-yl)-2-(2-morpholinopyridin-4-yl)pyrazolo[5,1-b]thiazole-7-carboxamide], the IC50 (PDGFRβ; read-out: PDGFR Cellular IC50) was 2.8 nM and the IC50 [1] was 0.3 nM.
Work on Cc1cnn(C)c1-c1cn2ncc(C(=O)Nc3cc(NC(=O)CN4CC(C)(C)C4)cnc3C)c2s1 [Example 389, 2-(1,4-dimethyl-1H-pyrazol-5-yl)-N-(5-(2-(3,3-dimethylazetidin-1-yl)acetamido)-2-methylpyridin-3-yl)pyrazolo[5,1-b]thiazole-7-carboxamide] yielded an IC50 (PDGFRβ; read-out: PDGFR Cellular IC50) of 3.1 nM and an IC50 [1] of 0.6 nM.
